The source of these data is patent publication US8541588B2, “Sulfonamide derivatives” (Pfizer Limited, priority 2009, dated 2013).

A value given as a limit tells only on which side of the number the result lay.

The target of the first assay is T1, Nav1.7 (or SCN9A) channel; HEK cells stably transfected with hSCN9A (Homo sapiens, UniProt Q15858).
T1 construct: expressed in transfected cells
T1 sequence (Q15858 whole entry): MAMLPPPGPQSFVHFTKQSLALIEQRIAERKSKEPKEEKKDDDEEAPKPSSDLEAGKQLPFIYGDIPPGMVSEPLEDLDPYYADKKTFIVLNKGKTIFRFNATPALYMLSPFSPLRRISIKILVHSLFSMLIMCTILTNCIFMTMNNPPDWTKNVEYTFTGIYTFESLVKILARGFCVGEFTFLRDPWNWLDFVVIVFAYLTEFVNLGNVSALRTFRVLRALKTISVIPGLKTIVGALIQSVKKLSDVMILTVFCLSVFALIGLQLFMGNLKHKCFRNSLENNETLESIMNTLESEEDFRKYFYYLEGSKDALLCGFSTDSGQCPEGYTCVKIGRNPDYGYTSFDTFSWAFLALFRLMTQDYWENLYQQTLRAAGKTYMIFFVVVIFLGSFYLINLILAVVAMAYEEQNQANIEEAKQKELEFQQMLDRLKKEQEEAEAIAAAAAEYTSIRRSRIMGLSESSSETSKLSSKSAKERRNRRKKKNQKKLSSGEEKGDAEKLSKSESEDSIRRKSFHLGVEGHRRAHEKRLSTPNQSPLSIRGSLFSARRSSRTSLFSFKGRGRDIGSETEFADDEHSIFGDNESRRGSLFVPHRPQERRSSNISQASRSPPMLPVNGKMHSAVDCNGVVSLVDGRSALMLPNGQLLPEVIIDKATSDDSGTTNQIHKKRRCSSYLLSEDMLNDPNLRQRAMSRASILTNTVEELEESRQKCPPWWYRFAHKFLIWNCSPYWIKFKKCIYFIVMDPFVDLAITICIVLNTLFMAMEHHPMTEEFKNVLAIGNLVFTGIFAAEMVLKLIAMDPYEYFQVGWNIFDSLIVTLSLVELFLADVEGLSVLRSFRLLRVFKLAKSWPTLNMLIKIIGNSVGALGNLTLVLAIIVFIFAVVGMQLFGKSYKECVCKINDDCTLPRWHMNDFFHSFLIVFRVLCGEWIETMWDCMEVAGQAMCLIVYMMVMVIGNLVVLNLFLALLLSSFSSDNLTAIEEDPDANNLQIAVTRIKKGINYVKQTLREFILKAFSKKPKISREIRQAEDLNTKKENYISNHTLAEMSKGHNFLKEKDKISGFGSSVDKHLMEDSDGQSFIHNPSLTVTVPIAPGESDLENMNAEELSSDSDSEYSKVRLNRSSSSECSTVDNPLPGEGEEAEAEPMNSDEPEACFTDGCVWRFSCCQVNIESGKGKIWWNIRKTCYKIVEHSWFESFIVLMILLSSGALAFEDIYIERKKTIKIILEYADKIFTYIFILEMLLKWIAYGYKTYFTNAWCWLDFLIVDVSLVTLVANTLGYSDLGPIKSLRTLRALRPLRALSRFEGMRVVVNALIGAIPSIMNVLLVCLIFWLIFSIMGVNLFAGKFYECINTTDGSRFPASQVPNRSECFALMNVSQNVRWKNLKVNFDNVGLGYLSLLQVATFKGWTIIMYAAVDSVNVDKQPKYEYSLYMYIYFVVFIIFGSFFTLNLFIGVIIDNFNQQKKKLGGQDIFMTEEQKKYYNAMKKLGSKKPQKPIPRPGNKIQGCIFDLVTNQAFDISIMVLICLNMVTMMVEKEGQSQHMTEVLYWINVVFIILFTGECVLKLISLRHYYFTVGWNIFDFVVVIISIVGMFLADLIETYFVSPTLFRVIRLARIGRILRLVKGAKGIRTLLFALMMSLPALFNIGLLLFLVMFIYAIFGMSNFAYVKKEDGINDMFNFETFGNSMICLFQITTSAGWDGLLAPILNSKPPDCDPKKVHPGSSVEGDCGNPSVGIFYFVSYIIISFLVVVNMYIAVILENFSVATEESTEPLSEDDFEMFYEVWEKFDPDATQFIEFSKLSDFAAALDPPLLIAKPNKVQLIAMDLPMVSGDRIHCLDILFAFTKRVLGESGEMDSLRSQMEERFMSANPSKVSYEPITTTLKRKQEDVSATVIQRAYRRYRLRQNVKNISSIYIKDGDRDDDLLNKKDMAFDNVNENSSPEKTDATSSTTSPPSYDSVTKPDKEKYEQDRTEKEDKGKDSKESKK
The experiment in a line: Nav1.7 block, PatchXpress 7000 automated whole-cell voltage clamp, estimated IC50 (EIC50). The class given is cell-based. As to conditions: PatchXpress platform; hSCN9A HEK cells held at V1/2 of inactivation; estimated IC50.
In general, IC50 refers to the concentration that gives 50% inhibition. Turning to “3-fluoro-4-(4-methyl-2-(1-methyl-1H-pyrazol-3-yl)phenoxy)-N-(thiazol-2-yl)benzenesulfonamide [Example 215]”, the 50% inhibitory concentration (IC50) was 6440 nM.
Consider `Cn1nccc1-c1cc(F)ccc1Oc1ccc(S(=O)(=O)Nc2ncns2)cc1C#N` [Example 1, 3-cyano-4-(4-fluoro-2-(1-methyl-1H-pyrazol-5-yl)phenoxy)-N-(1,2,4-thiadiazol-5-yl)benzenesulfonamide], for which the IC50 was 90 nM.
On the same count and under the same terms, to `Cc1nc(-c2ccccc2Oc2ccc(S(=O)(=O)Nc3nccs3)c(F)c2)cs1` [Example 2] belongs 810 nM; to `Cn1nccc1-c1ccccc1Oc1ccc(S(=O)(=O)Nc2nccs2)cc1F` [Example 3, 3-fluoro-4-(2-(1-methyl-1H-pyrazol-5-yl)phenoxy)-N-(thiazol-2-yl)benzenesulfonamide], 100 nM; to `Cc1cc(OC(C)C)ccc1-c1ccccc1Oc1ccc(S(=O)(=O)Nc2ncns2)cc1C#N` [Example 4, 3-cyano-4-[(4′-isopropoxy-2′-methylbiphenyl-2-yl)oxy]-N-1,2,4-thiadiazol-5-ylbenzenesulfonamide], 1710 nM.
With `CC(C)Oc1cccc(-c2cc(F)ccc2Oc2ccc(S(=O)(=O)Nc3ncns3)cc2C#N)c1` [Example 5, 3-cyano-4-[(5-fluoro-3′-isopropoxybiphenyl-2-yl)oxy]-N-1,2,4-thiadiazol-5-ylbenzenesulfonamide], the IC50 was 70 nM.
As for `N#Cc1cc(S(=O)(=O)Nc2ncns2)ccc1Oc1ccc(F)cc1C1CC1` [Example 6, 3-cyano-4-(2-cyclopropyl-4-fluorophenoxy)-N-1,2,4-thiadiazol-5-ylbenzenesulfonamide], the half-maximal inhibitory concentration (IC50) is above 1000 nM.
In the case of `CCc1ccc(-c2ncccc2Oc2ccc(S(=O)(=O)Nc3ncns3)cc2C#N)cc1` [Example 7, 3-cyano-4-{[2-(4-ethylphenyl)pyridin-3-yl]oxy}-N-1,2,4-thiadiazol-5-ylbenzenesulfonamide], the half-maximal inhibitory concentration (IC50) was 35900 nM.
Take `CN(C)c1ncc(Oc2ccc(S(=O)(=O)Nc3ncns3)cc2C#N)c(-c2ccc(F)cc2)n1` [Example 8, 3-cyano-4-{[2-(dimethylamino)-4-(4-fluorophenyl)pyrimidin-5-yl]oxy}-N-1,2,4-thiadiazol-5-ylbenzenesulfonamide]: the concentration for half-maximal inhibition (IC50) was 450 nM.
Regarding `Cc1ccc(-c2nc(N(C)C)ncc2Oc2ccc(S(=O)(=O)Nc3ncns3)cc2C#N)cc1` [Example 9, 3-cyano-4-{[2-(dimethylamino)-4-(4-methylphenyl)pyrimidin-5-yl]oxy}-N-1,2,4-thiadiazol-5-ylbenzenesulfonamide], the 50% inhibitory concentration (IC50) is 3500 nM.
Same read-out and setting: as for `COc1ccc(-c2ccccc2Oc2ccc(S(=O)(=O)Nc3ncns3)cc2C#N)c(C)c1` [Example 10, 3-cyano-4-[(4′-methoxy-2′-methylbiphenyl-2-yl)oxy]-N-1,2,4-thiadiazol-5-ylbenzenesulfonamide], the figure is 630 nM; as for `N#Cc1ccc(-c2ccccc2Oc2ccc(S(=O)(=O)Nc3ncns3)cc2C#N)cc1` [Example 11, 3-cyano-4-[(4′-cyanobiphenyl-2-yl)oxy]-N-1,2,4-thiadiazol-5-ylbenzenesulfonamide], 430 nM.
The same measure, in the same setting: as for `Cc1ccc(Oc2ccc(S(=O)(=O)Nc3ncns3)cc2C#N)c(-c2ccccc2)n1` [Example 12, 3-cyano-4-[(6-methyl-2-phenylpyridin-3-yl)oxy]-N-1,2,4-thiadiazol-5-ylbenzenesulfonamide], the figure is 720 nM; as for `COc1cc(-c2ccccc2Oc2ccc(S(=O)(=O)Nc3ncns3)cc2C#N)ccc1C#N` [Example 13, 3-cyano-4-[(4′-cyano-3′-methoxybiphenyl-2-yl)oxy]-N-1,2,4-thiadiazol-5-ylbenzenesulfonamide], 170 nM.
Still for that read-out and setting: as for `CN(C)c1ncc(Oc2ccc(S(=O)(=O)Nc3ncns3)cc2C#N)c(-c2ccccc2F)n1` [Example 14, 3-cyano-4-{[2-(dimethylamino)-4-(2-fluorophenyl)pyrimidin-5-yl]oxy}-N-1,2,4-thiadiazol-5-ylbenzenesulfonamide], the figure is 4300 nM; as for `Cc1ccc(-c2ncccc2Oc2ccc(S(=O)(=O)Nc3ncns3)cc2C#N)cc1` [Example 17, 3-cyano-4-{[2-(4-methylphenyl)pyridin-3-yl]oxy}-N-1,2,4-thiadiazol-5-ylbenzenesulfonamide], 25500 nM; as for `N#Cc1cc(S(=O)(=O)Nc2ncns2)ccc1Oc1cnc(N)nc1-c1ccc(Cl)cc1` [Example 18, 4-{[2-amino-4-(4-chlorophenyl)pyrimidin-5-yl]oxy}-3-cyano-N-1,2,4-thiadiazol-5-ylbenzenesulfonamide], above 10000 nM.
Consider `CCc1ccc(Oc2ccc(S(=O)(=O)Nc3ncns3)cc2C#N)c(-c2ccccc2)n1` [Example 19, 3-cyano-4-[(6-ethyl-2-phenylpyridin-3-yl)oxy]-N-1,2,4-thiadiazol-5-ylbenzenesulfonamide], for which the IC50 was 720 nM.
Same read-out and setting: as for `N#Cc1cc(S(=O)(=O)Nc2ncns2)ccc1Oc1nccnc1-c1ccccc1` [Example 20, 3-cyano-4-[(3-phenylpyrazin-2-yl)oxy]-N-1,2,4-thiadiazol-5-ylbenzenesulfonamide], the figure is above 10000 nM; as for `N#Cc1cc(S(=O)(=O)Nc2ncns2)ccc1Oc1nnccc1-c1ccccc1` [Example 21, 3-cyano-4-[(4-phenylpyridazin-3-yl)oxy]-N-1,2,4-thiadiazol-5-ylbenzenesulfonamide], above 10000 nM; as for `N#Cc1cc(S(=O)(=O)Nc2ncns2)ccc1Oc1cccnc1-c1ccccc1` [Example 22, 3-cyano-4-[(2-phenylpyridin-3-yl)oxy]-N-1,2,4-thiadiazol-5-ylbenzenesulfonamide], 3140 nM.
Consider `N#Cc1cc(S(=O)(=O)Nc2ncns2)ccc1Oc1cnc(N)nc1-c1ccccc1` [Example 23, 4-[(2-amino-4-phenylpyrimidin-5-yl)oxy]-3-cyano-N-1,2,4-thiadiazol-5-ylbenzenesulfonamide], for which the IC50 is 2030 nM.
Same read-out and setting: to `N#Cc1cc(S(=O)(=O)Nc2ncns2)ccc1Oc1ccccc1-c1ccccc1` [Example 24, 4-(biphenyl-2-yloxy)-3-cyano-N-(1,2,4-thiadiazol-5-yl)benzenesulfonamide] belongs 110 nM.
Same read-out and setting: to `N#Cc1cc(S(=O)(=O)Nc2ncns2)ccc1Oc1ccc(F)cc1-c1ccnn1CC(F)(F)F` [Example 26, 3-cyano-4-(4-fluoro-2-(1-(2,2,2-trifluoroethyl)-1H-pyrazol-5-yl)phenoxy)-N-(1,2,4-thiadiazol-5-yl)benzenesulfonamide] belongs 450 nM; to `Cc1ccc(Oc2ccc(S(=O)(=O)Nc3ncns3)cc2C#N)c(-c2c(C)cnn2C)c1` [Example 27, 3-cyano-4-(2-(1,4-dimethyl-1H-pyrazol-5-yl)-4-methylphenoxy)-N-(1,2,4-thiadiazol-5-yl)benzenesulfonamide], 780 nM; to `Cc1ccc(Oc2ccc(S(=O)(=O)Nc3ncns3)cc2C#N)c(-c2nn(C)cc2C)c1` [Example 28, 3-cyano-4-(2-(1,4-dimethyl-1H-pyrazol-3-yl)-4-methylphenoxy)-N-(1,2,4-thiadiazol-5-yl)benzenesulfonamide], 2980 nM.
Still for that read-out and setting: as for `CCOC(=O)Cn1nccc1-c1cc(Cl)ccc1Oc1ccc(S(=O)(=O)Nc2ncns2)cc1C#N` [Example 29, ethyl 2-(5-(2-(4-(N-1,2,4-thiadiazol-5-ylsulfamoyl)-2-cyanophenoxy)-5-chlorophenyl)-1H-pyrazol-1-yl)acetate], the figure is 230 nM.
As for `COC(=O)c1ccc(Oc2ccc(S(=O)(=O)Nc3ncns3)cc2C#N)c(-c2ccnn2C)c1` [Example 30, methyl 4-(4-(N-1,2,4-thiadiazol-5-ylsulfamoyl)-2-cyanophenoxy)-3-(1-methyl-1H-pyrazol-5-yl)benzoate], the 50% inhibitory concentration (IC50) was 300 nM.
Still for that read-out and setting: as for `Cc1cccc(-c2cc(F)ccc2F)c1Oc1ccc(S(=O)(=O)Nc2ncns2)cc1C#N` [Example 31, 3-cyano-4-[(2′,5′-difluoro-3-methylbiphenyl-2-yl)oxy]-N-1,2,4-thiadiazol-5-ylbenzenesulfonamide], the figure is 16200 nM.
Turning to `Cc1cccc(-c2cccc(OC(C)C)c2)c1Oc1ccc(S(=O)(=O)Nc2ncns2)cc1C#N` [Example 32, 3-cyano-4-[(3′-isopropoxy-3-methylbiphenyl-2-yl)oxy]-N-1,2,4-thiadiazol-5-ylbenzenesulfonamide], the half-maximal inhibitory concentration (IC50) was 3380 nM.
Same read-out and setting: as for `N#Cc1cc(S(=O)(=O)Nc2ncns2)ccc1Oc1ccc(F)cc1-c1cc(F)ccc1F` [Example 33, 3-cyano-N-1,2,4-thiadiazol-5-yl-4-[(2′,5,5′-trifluorobiphenyl-2-yl)oxy]benzenesulfonamide], the figure is 380 nM; as for `CC(C)Oc1cccc(-c2ccccc2Oc2ccc(S(=O)(=O)Nc3ncns3)cc2C#N)c1` [Example 34, 3-cyano-4-[(3′-isopropoxybiphenyl-2-yl)oxy]-N-1,2,4-thiadiazol-5-ylbenzenesulfonamide], 90 nM; as for `Cc1cccc(-c2ccc(F)cc2F)c1Oc1ccc(S(=O)(=O)Nc2ncns2)cc1C#N` [Example 35, 3-cyano-4-[(2′,4′-difluoro-3-methylbiphenyl-2-yl)oxy]-N-1,2,4-thiadiazol-5-ylbenzenesulfonamide], 12700 nM.
Still for that read-out and setting: to `N#Cc1cc(S(=O)(=O)Nc2ncns2)ccc1Oc1ccccc1-c1cc(F)ccc1F` [Example 36, 3-cyano-4-[(2′,5′-difluorobiphenyl-2-yl)oxy]-N-1,2,4-thiadiazol-5-ylbenzenesulfonamide] belongs 1290 nM.

The same assay, now with this note: estimated IC50; hSCN9A HEK cells, PatchXpress platform; Examples 283-814.
For “4-(4-chloro-2-piperidin-4-ylphenoxy)-2,5-difluoro-N-1,2,4-thiadiazol-5-ylbenzenesulfonamide [Example 636]”, the IC50 was 8.4 nM.
Same read-out and setting: to “4-[2-(2-aminopyridin-4-yl)-4-(trifluoromethoxy)phenoxy]-2,5-difluoro-N-1,2,4-thiadiazol-5-ylbenzenesulfonamide [Example 552]” belongs 2.4 nM.
On the same count and under the same terms, to “4-[2-fluoro-4-(3-methoxy-1-methyl-1H-pyrazol-5-yl)phenoxy]-N-1,3-thiazol-2-ylbenzenesulfonamide [Example 435]” belongs 2700 nM.
